Assay results published in patent US20040002080A1, “Primers for use in detecting beta-lactamases” (priority 2001, published 2004).
Values after ≈ are worked out from the molar mass of the structure shown. Read-outs that look alike come from different tables or passages of the source.

Key:
[1] = system: S. enterica serotype typhimurium isolate; test: Antibiotic susceptibility testing (microdilution MIC, VITEK, NCCLS disk diffusion); assay type: cell-based, Salmonella enterica serotype Typhimurium
K. pneumoniae strain 249 = test: Overnight microdilution susceptibility test (MicroScan panels, NCCLS criteria); assay type: cell-based; conditions: Klebsiella pneumoniae, K. pneumoniae 249, combinations as drug/clavulanate, read-out: Minimum Inhibitory Concentrations (MICs)
Protocol: Susceptibility tests were performed on K. pneumoniae 249 by an overnight microdilution method with investigational dehydrated panels provided by Dade Behring MicroScan (Sacramento, Calif.) according to the manufacturer's recommendations and interpreted according to National Committee for Clinical Laboratory Standards (NCCLS) criteria and by NCCLS disc diffusion (National Committee for Clinical Laboratory Standards (NCCLS), “Methods for Dilution Antimicrobial Susceptibility Tests for Bacteria that Grow Aerobically: Approved Standard M7-A4,” Villanova, Pa. (1997); and Hanson et al., J. Antimicrob. Chemother., 44(3):377-380 (September 1999)). The test was performed using an innoculum of approximately 5×10^5 colony forming units per square milliliter (cfu/mL^2). Isoelectric focusing (IEF), cefotaxime hydrolysis and inhibitor determinations in polyacrylamide gels were performed using sonic extracts of K. pneumoniae 249 (Thomson et al., Antimicrob. Agents Chemother., 35:1001-1003 (1991)).

[2] = system: S. enterica serotype typhimurium isolate; test: Phenotypic inhibitor-based ESBL tests (double disk potentiation with clavulanate); assay type: cell-based, Salmonella enterica serotype Typhimurium; conditions: for potentiation by clavulanate (ESBL tests positive): with clavulanate
Text: Susceptibility testing and β-lactamase investigations. Antibiotic susceptibilities and resistance phenotypes were investigated by microdilution MIC methodology, double disk potentiation, VITEK (card GNS-424, bioMérieux, Inc. St. Louis, Mo.), NCCLS disk diffusion, and the three dimensional test (Thomson et al., Antimicrob. Agents Chemother., 35(5):1001-1003 (May 1991); and Thomson et al., Antimicrob. Agents Chemother., 36(9):1877-1882 (September 1992)).

[3] = system: beta-lactamase pI>9.0 (AmpC); test: Isoelectric focusing with general inhibitor characteristics, crude beta-lactamase preparations; assay type: biochemical, Salmonella enterica serotype Typhimurium; conditions: crude preparation
Protocol: (§1) Crude beta-lactamase preparations derived from sonicated bacterial cultures of the S. typhimurium isolate and strains producing reference beta-lactamases were assessed for beta-lactamase pls and general inhibitor characteristics by isoelectric focusing (Thomson et al., Antimicrob. Agents Chemother., 35(5):1001-1003 (May 1991).

[4] = biological target: T1, beta-lactamase pI 7.4 (OXA-1 or OXA-30) (Escherichia coli, UniProt P13661); assay type: biochemical, Salmonella enterica serotype Typhimurium; conditions: isoelectric focusing, crude preparation
T1 construct: Crude beta-lactamase preparations derived from sonicated bacterial cultures of the S. typhimurium isolate; endogenous in cells; host or cells: Salmonella enterica serotype Typhimurium clinical stool isolate, sonicated culture

[5] = biological target: T2, beta-lactamase band of isoelectric point 9.1 (AmpC enzyme) of K. pneumoniae 249 (Klebsiella pneumoniae, UniProt Q48434); test: Isoelectric focusing, cefotaxime hydrolysis and inhibitor determinations in polyacrylamide gels, sonic extracts; assay type: biochemical; conditions: sonic extracts of K. pneumoniae 249, polyacrylamide gel; for inhibition of the band of isoelectric point 9.1: inhibitor 1000 mM
T2 construct: performed using sonic extracts of K. pneumoniae 249; endogenous in cells; host or cells: Klebsiella pneumoniae strain 249 (clinical urine isolate), sonic extract
Protocol: The test was performed using an innoculum of approximately 5×10^5 colony forming units per square milliliter (cfu/mL^2).
The cefoxitin, ceftriaxone/clavulanate and ceftazidime/clavulanate MICs indicated two possible mechanisms of resistance, the expression of a plasmid-mediated ampC gene and/or a porin mutation. […] Three beta-lactamases were identified with isoelectric points of 5.4, 7.6, and 9.1. The band that focused at isoelectric point 9.1 hydrolyzed cefotaxime and was inhibited by cloxacillin (1000 mM), but not clavulanate (1000 mM). These findings indicated it was an AmpC enzyme.

[6] = system: beta-lactamase pI 8.2 (SHV-9); test: Isoelectric focusing with general inhibitor characteristics, crude beta-lactamase preparations; assay type: biochemical, Salmonella enterica serotype Typhimurium; conditions: crude preparation
Protocol: as §1

T2 sequence (Q48434 21-381): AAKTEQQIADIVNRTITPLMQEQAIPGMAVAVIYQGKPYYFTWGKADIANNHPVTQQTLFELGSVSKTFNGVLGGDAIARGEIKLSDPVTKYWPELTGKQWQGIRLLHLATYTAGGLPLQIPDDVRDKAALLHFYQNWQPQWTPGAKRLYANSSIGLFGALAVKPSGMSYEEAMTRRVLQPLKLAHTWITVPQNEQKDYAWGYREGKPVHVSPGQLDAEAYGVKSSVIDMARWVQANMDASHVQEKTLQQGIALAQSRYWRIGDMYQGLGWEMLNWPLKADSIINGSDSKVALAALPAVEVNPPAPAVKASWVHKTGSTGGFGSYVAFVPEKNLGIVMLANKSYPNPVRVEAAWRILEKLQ
T1 sequence (P13661 26-276): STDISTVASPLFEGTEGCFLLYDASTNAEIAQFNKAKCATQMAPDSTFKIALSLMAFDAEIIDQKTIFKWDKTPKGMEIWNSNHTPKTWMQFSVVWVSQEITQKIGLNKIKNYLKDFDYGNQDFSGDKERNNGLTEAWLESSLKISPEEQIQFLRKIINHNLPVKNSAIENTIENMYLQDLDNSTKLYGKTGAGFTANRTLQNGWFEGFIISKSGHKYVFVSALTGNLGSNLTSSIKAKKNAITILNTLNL

| Molecule | MIC ([1]; Table 2) | susceptibility category (susceptible / intermediate / resistant) [1] | MIC (K. pneumoniae strain 249) [µg/mL] | other results |
| --- | --- | --- | --- | --- |
| NC[C@H]1O[C@H](O[C@H]2[C@H](O)[C@@H](O[C@H]3O[C@H](CO)[C@@H](O)[C@H](N)[C@H]3O)[C@H](N)C[C@@H]2N)[C@H](N)C[C@@H]1O [Tobramycin] | > 16 µg/mL | – | – | – |
| O=C(O)c1cn(C2CC2)c2cc(N3CCNCC3)c(F)cc2c1=O [Ciprofloxacin] | – | susceptible | – | – |
| C[C@@H](O)[C@H]1C(=O)N2C(C(=O)O)=C(S[C@@H]3CN[C@H](C(=O)N(C)C)C3)[C@H](C)[C@H]12 [Meropenem] | less than 2 | susceptible | ≤ 0.5 | – |
| CC1(C)S[C@@H]2[C@H](NC(=O)[C@H](C(=O)O)c3ccsc3)C(=O)N2[C@H]1C(=O)O [ticarcillin] | – | – | > 64 | – |
| CC1(C)S[C@@H]2[C@H](NC(=O)[C@H](N)c3ccccc3)C(=O)N2[C@H]1C(=O)O [Ampicillin] | > 256 µg/mL | – | > 16 | – |
| CO/N=C(\C(=O)N[C@@H]1C(=O)N2C(C(=O)O)=C(COC(N)=O)CS[C@H]12)c1ccco1 [Cefuroxime] | > 256 µg/mL | – | – | – |
| C[C@H]1COc2c(N3CCN(C)CC3)c(F)cc3c(=O)c(C(=O)O)cn1c23 [Levofloxacin] | 0.5 µg/mL (≈ 1.38 µM) | – | – | – |
| CC(=O)OCC1=C(C(=O)O)N2C(=O)[C@@H](NC(=O)Cc3cccs3)[C@H]2SC1 [Cephalothin] | > 32 µg/mL | – | > 16 | – |
| C[C@@H](O)[C@H]1C(=O)N2C(C(=O)O)=C(SCCN=CN)C[C@H]12 [Imipenem] | 0.25 µg/mL (≈ 0.835 µM) | – | – | – |
| CO/N=C(\C(=O)N[C@@H]1C(=O)N2C(C(=O)[O-])=C(C[n+]3cccc4c3CCC4)CS[C@H]12)c1csc(N)n1 [cefpirome] | – | – | – | potentiation by clavulanate (ESBL tests positive) [2]: potentiation |
| CC(C)(O/N=C(\C(=O)N[C@@H]1C(=O)N2C(C(=O)[O-])=C(C[n+]3ccccc3)CS[C@H]12)c1csc(N)n1)C(=O)O [Ceftazidime] | > 32 µg/mL | resistance | 16 | – |
| CCN1CCN(C(=O)N[C@@H](C(=O)N[C@@H]2C(=O)N3[C@@H]2SC(C)(C)[C@@H]3C(=O)O)c2ccccc2)C(=O)C1=O [piperacillin] | – | – | > 64 | – |
| Cotrimoxazole | > 320 µg/mL | resistant | – | – |
| CC=CC1=C(C(=O)O)N2C(=O)[C@@H](NC(=O)[C@H](N)c3ccc(O)cc3)[C@H]2SC1 [Cefprozil] | > 128 µg/mL | – | – | – |
| CO[C@@]1(NC(=O)Cc2cccs2)C(=O)N2C(C(=O)O)=C(COC(N)=O)CS[C@@H]21 [cefoxitin] | – | resistance | > 32 | – |
| CO/N=C(\C(=O)N[C@@H]1C(=O)N2C(C(=O)[O-])=C(C[N+]3(C)CCCC3)CS[C@H]12)c1csc(N)n1 [cefepime] | – | intermediate | ≤ 4 | potentiation by clavulanate (ESBL tests positive) [2]: potentiation |
| C[C@H]1[C@H](NC(=O)/C(=N\OC(C)(C)C(=O)O)c2csc(N)n2)C(=O)N1S(=O)(=O)O [aztreonam] | – | resistance | – | reversal of resistance by the addition of clavulanate ([2]; addition of clavulanate): partially reversible; potentiation by clavulanate (ESBL tests positive) [2]: potentiation |
| Cc1onc(-c2ccccc2Cl)c1C(=O)N[C@@H]1C(=O)N2[C@@H]1SC(C)(C)[C@@H]2C(=O)O [cloxacillin] | – | – | – | inhibition of beta-lactamase pI>9.0 [3]: inhibited; inhibition of beta-lactamase pI 7.4 [4]: not; inhibition of the band of isoelectric point 9.1 [5]: inhibited |
| CO/N=C(\C(=O)N[C@@H]1C(=O)N2C(C(=O)O)=C(CSc3nc(=O)c(=O)[nH]n3C)CS[C@H]12)c1csc(N)n1 [Ceftriaxone] | > 128 µg/mL | – | 16 | – |
| O=C(N[C@H](CO)[C@H](O)c1ccc([N+](=O)[O-])cc1)C(Cl)Cl [Chloramphenicol] | > 256 µg/mL | resistant | – | – |
| Gentamicin | > 16 µg/mL | – | – | – |
| NCC[C@H](O)C(=O)N[C@@H]1C[C@H](N)[C@@H](O[C@H]2O[C@H](CN)[C@@H](O)[C@H](O)[C@H]2O)[C@H](O)[C@H]1O[C@H]1O[C@H](CO)[C@@H](O)[C@H](N)[C@H]1O [Amikacin] | > 64 µg/mL | – | – | – |
| CO/N=C(\C(=O)N[C@@H]1C(=O)N2C(C(=O)O)=C(COC(C)=O)CS[C@H]12)c1csc(N)n1 [cefotaxime] | – | resistance | – | cefotaxime hydrolysis by the band of isoelectric point 9.1 [5]: hydrolyzed |
| C=CC1=C(C(=O)O)N2C(=O)[C@@H](NC(=O)/C(=N\OCC(=O)O)c3csc(N)n3)[C@H]2SC1 [Cefixime] | > 128 µg/mL | – | – | – |
| O=C(O)[C@H]1/C(=C/CO)O[C@@H]2CC(=O)N21 [clavulanate] | – | – | – | inhibition of beta-lactamase pI 8.2 [6]: inhibited; inhibition of beta-lactamase pI>9.0 [3]: not; inhibition of beta-lactamase pI 7.4 [4]: inhibited; inhibition of the band of isoelectric point 9.1 [5]: not |
| C[C@@H](O)[C@H]1C(=O)N2C(C(=O)O)=C([C@H]3CCCO3)S[C@H]12 [Faropenem] | 2 µg/mL (≈ 7.01 µM) | – | – | MIC ([1]; Salmonella enterica, read-out: MIC): 2 µg/mL (≈ 7.01 µM) |
| COCC1=C(C(=O)O)N2C(=O)[C@@H](NC(=O)/C(=N\OC)c3csc(N)n3)[C@H]2SC1 [cefpodoxime] | – | – | > 4 | – |
